# The source made the active and inactive calls. The rule behind the calls is not given here.
# Tests used:
# Pseudomonas aeruginosa [1] = experiment: Antibacterial activity against Pseudomonas aeruginosa after 24 hr by two-fold serial dilution method; assay type: functional
# Enterococcus faecalis [2] = experiment: Antibacterial activity against Enterococcus faecalis after 24 hr by two-fold serial dilution method; assay type: functional
# Aspergillus flavus [3] = experiment: Antifungal activity against Aspergillus flavus after 72 to 96 hr by two-fold serial dilution method; assay type: functional
# Aspergillus niger = experiment: Antifungal activity against Aspergillus niger after 72 to 96 hr by two-fold serial dilution method; assay type: functional
# Klebsiella pneumoniae [4] = experiment: Antibacterial activity against Klebsiella pneumoniae after 24 hr by two-fold serial dilution method; assay type: functional
# Escherichia coli = experiment: Antibacterial activity against Escherichia coli after 24 hr by two-fold serial dilution method; assay type: functional
# Bacillus subtilis = experiment: Antibacterial activity against Bacillus subtilis after 24 hr by two-fold serial dilution method; assay type: functional
# Cryptococcus neoformans [5] = experiment: Antifungal activity against Cryptococcus neoformans after 72 to 96 hr by two-fold serial dilution method; assay type: functional
# Candida [6] = experiment: Antifungal activity against Candida-6 after 72 to 96 hr by two-fold serial dilution method; assay type: functional
# Candida [7] = experiment: Antifungal activity against Candida-51 after 72 to 96 hr by two-fold serial dilution method; assay type: functional
# Cryptococcus neoformans [8] = experiment: Antifungal activity against Cryptococcus neoformans at 100 ug/ml after 72 to 96 hr by two-fold serial dilution method; assay type: functional, organism-based
# Klebsiella pneumoniae [9] = experiment: Antibacterial activity against Klebsiella pneumoniae at 100 ug/ml after 24 hr by two-fold serial dilution method; assay type: functional, organism-based
# Candida [10] = experiment: Antifungal activity against Candida-6 at 100 ug/ml after 72 to 96 hr by two-fold serial dilution method; assay type: functional, organism-based
# Candida [11] = experiment: Antifungal activity against Candida-51 at 100 ug/ml after 72 to 96 hr by two-fold serial dilution method; assay type: functional, organism-based
# Pseudomonas aeruginosa [12] = experiment: Antibacterial activity against Pseudomonas aeruginosa at 100 ug/ml after 24 hr by two-fold serial dilution method; assay type: functional, organism-based
# Aspergillus flavus [13] = experiment: Antifungal activity against Aspergillus flavus at 100 ug/ml after 72 to 96 hr by two-fold serial dilution method; assay type: functional, organism-based
# Enterococcus faecalis [14] = experiment: Antibacterial activity against Enterococcus faecalis at 100 ug/ml after 24 hr by two-fold serial dilution method; assay type: functional, organism-based
MIC (Pseudomonas aeruginosa [1]),MIC (Enterococcus faecalis [2]),MIC (Aspergillus flavus [3]),MIC (Aspergillus niger),MIC (Klebsiella pneumoniae [4]),MIC (Escherichia coli),MIC (Bacillus subtilis),MIC (Cryptococcus neoformans [5]),MIC (Candida [6]),MIC (Candida [7]),SMILES,inhibition (Cryptococcus neoformans [8]),inhibition (Klebsiella pneumoniae [9]),inhibition (Candida [10]),inhibition (Candida [11]),inhibition (Pseudomonas aeruginosa [12]),inhibition (Aspergillus flavus [13]),inhibition (Enterococcus faecalis [14])
25 µg/mL,25 µg/mL,50 µg/mL,25 µg/mL,25 µg/mL,50 µg/mL,50 µg/mL,25 µg/mL,50 µg/mL,50 µg/mL,CC(=O)NC1=NN(C(C)=O)C2(CC(c3ccc(Cl)cc3)N(C(C)=O)C(c3ccc(Cl)cc3)C2)S1 (stereo not given),,,,,,,
50 µg/mL,25 µg/mL,25 µg/mL,25 µg/mL,12.5 µg/mL,25 µg/mL,25 µg/mL,12.5 µg/mL,25 µg/mL,50 µg/mL,COc1ccc(C2CC3(CC(c4ccc(OC)cc4)N2C(C)=O)SC(NC(C)=O)=NN3C(C)=O)cc1 (stereo not given),,,,,,,
50 µg/mL,50 µg/mL,100 µg/mL,50 µg/mL,25 µg/mL,50 µg/mL,100 µg/mL,,50 µg/mL,100 µg/mL,CC(=O)NC1=NN(C(C)=O)C2(CC(c3ccc(C)cc3)N(C(C)=O)C(c3ccc(C)cc3)C2C)S1 (stereo not given),inactive,,,,,,
25 µg/mL,12.5 µg/mL,50 µg/mL,25 µg/mL,12.5 µg/mL,25 µg/mL,50 µg/mL,12.5 µg/mL,25 µg/mL,25 µg/mL,CC(=O)NC1=NN(C(C)=O)C2(CC(c3ccc(Cl)cc3)N(C(C)=O)C(c3ccc(Cl)cc3)C2C)S1 (stereo not given),,,,,,,
25 µg/mL,25 µg/mL,25 µg/mL,25 µg/mL,6.25 µg/mL,25 µg/mL,25 µg/mL,6.25 µg/mL,50 µg/mL,25 µg/mL,COc1ccc(C2CC3(SC(NC(C)=O)=NN3C(C)=O)C(C)C(c3ccc(OC)cc3)N2C(C)=O)cc1 (stereo not given),,,,,,,
,100 µg/mL,100 µg/mL,50 µg/mL,,50 µg/mL,100 µg/mL,,,,CC(=O)NC1=NN(C(C)=O)C2(CC(c3ccccc3)N(C(C)=O)C(c3ccccc3)C2C)S1 (stereo not given),inactive,inactive,inactive,inactive,inactive,,
,,,100 µg/mL,,50 µg/mL,100 µg/mL,,,,CC(=O)NC1=NN(C(C)=O)C2(CC(c3ccccc3)N(C(C)=O)C(c3ccccc3)C2)S1 (stereo not given),inactive,inactive,inactive,inactive,inactive,inactive,inactive
100 µg/mL,100 µg/mL,,50 µg/mL,100 µg/mL,100 µg/mL,100 µg/mL,,50 µg/mL,100 µg/mL,CC(=O)NC1=NN(C(C)=O)C2(CC(c3ccc(C)cc3)N(C(C)=O)C(c3ccc(C)cc3)C2)S1 (stereo not given),inactive,,,,,inactive,

SMILES,MIC (Pseudomonas aeruginosa [1]),MIC (Enterococcus faecalis [2]),MIC (Aspergillus flavus [3]),MIC (Aspergillus niger),MIC (Klebsiella pneumoniae [4]),MIC (Escherichia coli),MIC (Bacillus subtilis),MIC (Cryptococcus neoformans [5]),MIC (Candida [6]),MIC (Candida [7]),inhibition (Cryptococcus neoformans [8]),inhibition (Klebsiella pneumoniae [9]),inhibition (Candida [10]),inhibition (Candida [11]),inhibition (Pseudomonas aeruginosa [12]),inhibition (Aspergillus flavus [13]),inhibition (Enterococcus faecalis [14])
CN[C@@H]1[C@H](O[C@H]2[C@H](O[C@H]3[C@H](O)[C@@H](O)[C@H](N=C(N)N)[C@@H](O)[C@@H]3N=C(N)N)O[C@@H](C)[C@]2(O)C=O)O[C@@H](CO)[C@H](O)[C@H]1O [STREPTOMYCIN],25 µg/mL,50 µg/mL,,,25 µg/mL,12.5 µg/mL,12.5 µg/mL,,,,,,,,,,
C[C@@H]1[C@H](O)[C@@H](C)/C=C/C=C/C=C/C=C/C=C/C=C/C=C/[C@H](O[C@@H]2O[C@H](C)[C@@H](O)[C@H](N)[C@@H]2O)C[C@@H]2O[C@](O)(C[C@@H](O)C[C@@H](O)[C@H](O)CC[C@@H](O)C[C@@H](O)CC(=O)O[C@H]1C)C[C@H](O)[C@H]2C(=O)O [AMPHOTERICIN B],,,50 µg/mL,50 µg/mL,,,,25 µg/mL,25 µg/mL,25 µg/mL,,,,,,,
CC1(C)S[C@@H]2[C@H](NC(=O)Cc3ccccc3)C(=O)N2[C@H]1C(=O)O [PENICILLIN G],50 µg/mL,12.5 µg/mL,,,12.5 µg/mL,50 µg/mL,25 µg/mL,,,,,,,,,,

# From ChEMBL document CHEMBL3046555, “Synthesis and Microbiological Evaluation of Novel [N-Acetyl-2,6-Diarylpiperidin-4-YL]-5-Spiro-4-Acetyl-2-(Acetylamino)-2-1,3,4-Thiadiazolines” (2004)
